Among the test systems are CAKI-1 renal; HOP-62 NSCLC; HL-60(TB) leukemia; A549 NSCLC; SK-MEL-2 melanoma; MALME-3M melanoma; HT29 colon.
Common to all, as to assay: growth of human tumour cells (NCI), 48 h

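Tested at 5 concentrations; 48 h exposure; 96-well plates; endpoints linearly interpolated, else capped at highest concentration. Here, GI50 denotes the concentration required for 50% inhibition of growth. TGI: concentration producing complete growth inhibition.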

For `N#Cc1c(Oc2ccc(F)c(NC(=O)Cc3cccc(C(F)(F)F)c3)c2)ccc2nc(NC(=O)C3CC3)sc12`, the GI50 in the assay on CAKI-1 renal is 0.744 µM; in the assay on HOP-62 NSCLC it was 0.472 µM; in the assay with HL-60(TB) leukemia it was 0.48 µM; in the assay on A549 NSCLC, 0.703 µM; in the assay with SK-MEL-2 melanoma it was 0.108 µM; in the assay with MALME-3M melanoma, 0.0101 µM. For the same compound, the GI50 with HT29 colon is 0.0533 µM. Besides, the TGI is > 100 µM in the assay with CAKI-1 renal; > 100 µM in the assay with HOP-62 NSCLC; > 100 µM with HL-60(TB) leukemia; > 100 µM in the assay with A549 NSCLC; 0.83 µM in the assay on SK-MEL-2 melanoma; 0.0476 µM in the assay with MALME-3M melanoma. In addition, the TGI in the assay on HT29 colon was > 100 µM.
On to `Cc1cc2c(C(C)C)c(O)c(O)c(C=O)c2c(O)c1-c1c(C)cc2c(C(C)C)c(O)c(O)c(C=O)c2c1O` (tested in a mixture with another compound), for which the GI50 in the assay on CAKI-1 renal was 0.966 µM; with HOP-62 NSCLC, 0.988 µM; in the assay on HL-60(TB) leukemia it was 0.535 µM; in the assay on A549 NSCLC it was 0.468 µM; in the assay with SK-MEL-2 melanoma it was 1.64 µM; with MALME-3M melanoma, 1.74 µM. Further, the GI50 in the assay on HT29 colon is 1.61 µM. For the same compound, the TGI in the assay with CAKI-1 renal was determined as 4.81 µM; in the assay with HOP-62 NSCLC, 2.9 µM; with HL-60(TB) leukemia it was 5.74 µM; with A549 NSCLC it was 2.38 µM; in the assay with SK-MEL-2 melanoma, 4.07 µM; in the assay with MALME-3M melanoma, 5.01 µM. In addition, in the assay on HT29 colon, the TGI is 3.51 µM.
In the case of `COc1cnc2c(c1)C(=O)c1c-2n(CCCN2CCN(CCO)CC2)c(=O)c2cc([N+](=O)[O-])ccc12`, the GI50 in the assay on CAKI-1 renal was 1.34 µM; in the assay on HOP-62 NSCLC, 2.76 µM; in the assay on HL-60(TB) leukemia, 1.69 µM; in the assay with A549 NSCLC, 1.13 µM; with SK-MEL-2 melanoma it was 18.7 µM; in the assay with MALME-3M melanoma, 1.56 µM. In the assay on HT29 colon, the GI50 is 1.24 µM. For the same compound, the TGI with CAKI-1 renal turned out to be 15.8 µM; in the assay with HOP-62 NSCLC, 19.6 µM; with HL-60(TB) leukemia, 5.27 µM; in the assay with A549 NSCLC, 2.48 µM; in the assay on SK-MEL-2 melanoma, 39 µM; in the assay on MALME-3M melanoma it was 3.33 µM. Also, in the assay on HT29 colon, the TGI worked out at 2.63 µM.
For the compound `C[C@@H]1CN2[C@H]3[C@@H]1CC[C@]31CCC(=O)O[C@]1(C)[C@@H]1CC[C@H]3CCC=C3[C@@H]12`, the GI50 in the assay on CAKI-1 renal, with HOP-62 NSCLC, with HL-60(TB) leukemia, in the assay with A549 NSCLC, with SK-MEL-2 melanoma and with MALME-3M melanoma was > 70 µM throughout. Also, in the assay with HT29 colon, the GI50 was > 70 µM. Further, the TGI in the assay with CAKI-1 renal, in the assay on HOP-62 NSCLC, with HL-60(TB) leukemia, with A549 NSCLC, in the assay on SK-MEL-2 melanoma and in the assay on MALME-3M melanoma was > 70 µM each time. Besides, the TGI with HT29 colon was > 70 µM.
Turning to `O=C(CC1(O)C(=O)Nc2c(Cl)ccc(Cl)c21)c1ccc(C2CC2)cc1` (configuration not stated), the GI50 in the assay on CAKI-1 renal was 0.449 µM; in the assay with HOP-62 NSCLC, 1.28 µM; in the assay on HL-60(TB) leukemia it was 0.318 µM; in the assay with A549 NSCLC, 2.09 µM; in the assay on SK-MEL-2 melanoma, 2.06 µM; with MALME-3M melanoma, 1.53 µM. The GI50 in the assay with HT29 colon is 0.586 µM. Further, the TGI came to 17.3 µM with CAKI-1 renal; 19.4 µM with HOP-62 NSCLC; 10.3 µM with HL-60(TB) leukemia; 19.8 µM in the assay on A549 NSCLC; 8.83 µM in the assay with SK-MEL-2 melanoma; 26.8 µM in the assay on MALME-3M melanoma. The same compound registered a TGI in the assay with HT29 colon of 2.22 µM.
As for `C[C@@H](Oc1cc(-c2cnn(C3CC4(CCCNC4)C3)c2)cnc1N)c1c(Cl)ccc(F)c1Cl` (some centres not stated), the GI50 in the assay with CAKI-1 renal is 2.08 µM; in the assay on HOP-62 NSCLC, 1.21 µM; in the assay on HL-60(TB) leukemia it was 1.16 µM; in the assay on A549 NSCLC it was 1.22 µM; with SK-MEL-2 melanoma, 1.69 µM; in the assay on MALME-3M melanoma, 1.3 µM. The GI50 in the assay with HT29 colon was 0.607 µM. For the same compound, the TGI with CAKI-1 renal was 6.62 µM; in the assay on HOP-62 NSCLC, 4.92 µM; with HL-60(TB) leukemia, 3.01 µM; in the assay on A549 NSCLC it was 4.12 µM; in the assay with SK-MEL-2 melanoma, 3.24 µM; in the assay with MALME-3M melanoma, 3.12 µM. In addition, in the assay on HT29 colon, the TGI was 2.3 µM.
`O=C1c2cccc3cc([N+](=O)[O-])cc(c23)C(=O)N1O`: the TGI in the assay on CAKI-1 renal, with HOP-62 NSCLC, in the assay on HL-60(TB) leukemia, in the assay with A549 NSCLC, in the assay with SK-MEL-2 melanoma and in the assay with MALME-3M melanoma was > 100 µM each time. Further, in the assay on HT29 colon, the TGI was > 100 µM.
Turning to `Cc1cccnc1CNC1CC(NCc2ncccc2C)CC(NCc2ncccc2C)C1` (configuration not stated), the GI50 with CAKI-1 renal is 4.84 µM; in the assay with HOP-62 NSCLC, 1.96 µM; in the assay with HL-60(TB) leukemia, 2.47 µM; in the assay on A549 NSCLC, 2.01 µM; with SK-MEL-2 melanoma, 3.9 µM; in the assay on MALME-3M melanoma, 2.84 µM. In addition, the GI50 in the assay with HT29 colon was 3.36 µM. The TGI in the assay on CAKI-1 renal is 21.8 µM; with HOP-62 NSCLC, 4.52 µM; in the assay with HL-60(TB) leukemia, 5.98 µM; with A549 NSCLC, 4.21 µM; with SK-MEL-2 melanoma it was > 100 µM; in the assay with MALME-3M melanoma it was 9.46 µM. The TGI in the assay on HT29 colon was > 39.3 µM.
With `CN(C)CCOc1nc2ccccc2c2c1-c1ccc(Cl)cc1C2=O`, the GI50 was 0.499 µM in the assay on CAKI-1 renal; 1.21 µM with HOP-62 NSCLC; 0.933 µM in the assay on HL-60(TB) leukemia; 0.458 µM with A549 NSCLC; 2.34 µM in the assay with SK-MEL-2 melanoma; 1.07 µM with MALME-3M melanoma. The GI50 in the assay on HT29 colon was 0.453 µM. Further, the TGI in the assay with CAKI-1 renal came to 5.18 µM; with HL-60(TB) leukemia it was 3.37 µM; with A549 NSCLC, 5.25 µM; in the assay on SK-MEL-2 melanoma, 4.68 µM; with MALME-3M melanoma, 2.43 µM; in the assay with HT29 colon it was 1.63 µM.
For the compound `CC(=O)OCC(=O)C1(O)C(C)CC2C3C=C(C)C4=Cc5c(cnn5-c5ccccc5)CC4(C)C3C(O)CC21C` (configuration not stated), the GI50 was 2.35 µM with CAKI-1 renal; 1.35 µM in the assay with HOP-62 NSCLC; 2.44 µM with HL-60(TB) leukemia; 1.34 µM in the assay on A549 NSCLC; 1.66 µM with SK-MEL-2 melanoma; 1.5 µM in the assay on MALME-3M melanoma. Besides, the GI50 with HT29 colon is 0.971 µM. The TGI is 10.1 µM in the assay on CAKI-1 renal; 3.52 µM in the assay with HOP-62 NSCLC; 9.74 µM with HL-60(TB) leukemia; 13.5 µM in the assay on A549 NSCLC; 3.85 µM with SK-MEL-2 melanoma; 5.2 µM in the assay on MALME-3M melanoma. For the same compound, the TGI in the assay on HT29 colon is 2.42 µM.
Consider `c1cnc2c(c1)Nc1cnncc1S2`, for which the TGI in the assay on CAKI-1 renal, in the assay on HOP-62 NSCLC, in the assay on HL-60(TB) leukemia, with A549 NSCLC, in the assay on SK-MEL-2 melanoma and with MALME-3M melanoma was > 100 µM throughout. Moreover, in the assay on HT29 colon, the TGI is > 100 µM.
Consider `Cc1sc(/N=C2/NC(=O)CS2)nc1-c1nc(/N=C2/NC(=O)CS2)sc1C`, for which the GI50 is > 50 µM in the assay with CAKI-1 renal; 35.2 µM with HOP-62 NSCLC; > 50 µM in the assay on HL-60(TB) leukemia; > 50 µM in the assay on A549 NSCLC; > 50 µM in the assay with SK-MEL-2 melanoma; 32.2 µM in the assay with HT29 colon. Further, the TGI in the assay with CAKI-1 renal, with HOP-62 NSCLC, with HL-60(TB) leukemia, in the assay with A549 NSCLC, in the assay on SK-MEL-2 melanoma and in the assay with HT29 colon was > 50 µM each time.
On to `Oc1[nH]c2ccc(Cl)cc2c1/C=c1/ccc2c(c1)N=C(c1cc(F)cc(F)c1)N=2`, for which the GI50 in the assay on CAKI-1 renal was 5.1 µM; in the assay on HOP-62 NSCLC it was 3.77 µM; in the assay on HL-60(TB) leukemia it was 3.39 µM; in the assay on SK-MEL-2 melanoma, 3.24 µM; in the assay with MALME-3M melanoma, 57.5 µM. For the same compound, the TGI with CAKI-1 renal was > 100 µM; in the assay on HOP-62 NSCLC, 45 µM; with HL-60(TB) leukemia it was 7.23 µM; in the assay with SK-MEL-2 melanoma, 8.52 µM; in the assay with MALME-3M melanoma, > 100 µM.
For `CC1(C)CC2CC(C)(CN2c2ncnc3ccc(Br)cc23)C1` (configuration not stated), the GI50 in the assay with CAKI-1 renal is 10.2 µM; in the assay with HOP-62 NSCLC it was 12.9 µM; in the assay on HL-60(TB) leukemia, 1.38 µM; in the assay on A549 NSCLC, 2.82 µM; in the assay on SK-MEL-2 melanoma, 28.8 µM; in the assay on MALME-3M melanoma it was 0.195 µM. Also, the TGI was 22 µM in the assay with CAKI-1 renal; 25.6 µM with HOP-62 NSCLC; 3.48 µM in the assay with HL-60(TB) leukemia; 9.11 µM in the assay on A549 NSCLC; > 100 µM with SK-MEL-2 melanoma; 11.6 µM with MALME-3M melanoma.
As for `COc1cccc(Nc2nccc(Nc3ccc4[nH]ncc4c3)n2)c1`, the GI50 in the assay with CAKI-1 renal is 0.993 µM; in the assay with HOP-62 NSCLC it was 1.71 µM; in the assay with HL-60(TB) leukemia, 1.53 µM; in the assay on A549 NSCLC, 1.71 µM; in the assay on SK-MEL-2 melanoma, 1.62 µM; with HT29 colon it was 1.52 µM. The TGI amounted to 2.51 µM in the assay on CAKI-1 renal; 3.78 µM with HOP-62 NSCLC; 3.56 µM in the assay on HL-60(TB) leukemia; 3.74 µM in the assay on A549 NSCLC; 3.27 µM with SK-MEL-2 melanoma; 3.45 µM with HT29 colon.
As for `N#CC(C#N)=Cc1ccc(-c2ccc(-c3nc4ccccc4o3)cc2)o1`, the GI50 in the assay on CAKI-1 renal is 40 µM; in the assay on HOP-62 NSCLC, 21.6 µM; with A549 NSCLC, 28.2 µM; in the assay with SK-MEL-2 melanoma, > 100 µM; in the assay with MALME-3M melanoma it was 41.9 µM; with HT29 colon, 41.2 µM. Further, the TGI with CAKI-1 renal is > 100 µM; in the assay on HOP-62 NSCLC, 51.9 µM; in the assay on A549 NSCLC it was > 100 µM; in the assay with SK-MEL-2 melanoma, > 100 µM; with MALME-3M melanoma, > 100 µM; in the assay with HT29 colon, > 100 µM.

(Values after PubChem BioAssay (NCI).)
